# What was measured:
# [1] = tested on: EHRLICH-LETTRE CARCINOMA; experiment: Anti-carcinogenic activity in mice with transplanted Ehrlich tumor (average length of life); assay type: in vivo, white mice; conditions: for ALL (Average length of life): 17 Mice/Group, control 10.6; for % of control (ALL): control = 100
# Protocol: (§1) The anti-carcinogenic activity of betulinol biacetate and betulonic aldehyde was assessed using 117-120 gram white rats implanted with […] and 21-23 gram white mice with artificially transplanted Ehrlich's tumor.
# (§2) Solutions of 2.5% betulonic aldehyde and 0.05% betulinol biacetate were prepared in 10% polyvinylpyrrolidone containing Tween-80 (a sorbitan mono-9-octadecenate poly(oxy-1,2-ethanediyl)) stabilizer.
# (§3) Mice were injected with 0.1-0.2 ml of either betulinol biacetate or betulonic aldehyde solution daily, starting 24 hours after transplantation, for the following 5 days. Rats were injected with 1.2 ml of either betulinol biacetate or betulonic aldehyde solution daily, starting 24 hours after implantation, for the following 5 days. Animals in control groups received the same amount of a 10% solution of polyvinylpyrrolidone.
# (§4) The anti-tumor effect of betulinol acetate or betulonic aldehyde was determined by measuring the volume of the tumor on the 10th day after implantation. An average length of life ("ALL") was calculated for each of the deceased animals. In addition, the percentage of cured rats was also determined.
# (§5) The volume of the tumor was measured and calculated as a multiple of the quadrate of its similar diameter by the greater diameter. Thus, the effect was expressed as a ratio ("E/C"), in percent, of the tumor volume in rats treated with betulinol acetate or betulonic aldehyde ("E") and the tumor volume in control rats ("C"). The effect of betulinol acetate or betulonic aldehyde on ALL was evaluated the same way.
# (§6) A total of 155 mice and 142 rats were used for these experiments.
# [2] = tested on: WALKER-CARCINOMA (carcinosarcoma); experiment: Anti-carcinogenic activity in rats implanted with Walker carcinoma (tumor volume, average length of life, % cured); assay type: in vivo, white rats
# Protocol: as §1, §2, §3, §4, §5, §6
# [3] = Betulinol biacetate solubility in organic solvents; assay type: physicochemical
# Protocol: Studies of betulinol biacetate solubility were conducted in order to determine the appropriate solvent for product crystallization and purification.
# [4] = Group 1, Dose/day 206.7 mg/kg body weight
# [5] = Group 2, Dose/day 197.0 mg/kg body weight
# [6] = Group 3, Dose/day 98.0 mg/kg body weight
structure (smiles),measurement,setting,value
"C=C(C)[C@@H]1CC[C@]2(C=O)CC[C@]3(C)[C@H](CC[C@@H]4[C@@]5(C)CCC(=O)C(C)(C)[C@@H]5CC[C@]43C)[C@@H]12 [Betulon aldehyde, Betulonic Aldehyde]",ALL (Average length of life),[1]; [4],12.5 days
same,% of control (ALL),[1]; [4],118.0%
same,ALL (Average length of life),[1]; [5],10.5 days
same,% of control (ALL),[1]; [5],99.1%
same,ALL (Average length of life),[1]; [6],11.0 days
same,% of control (ALL),[1]; [6],103.7%
same,rate of the tumor growth inhibited (of the control group),"[2]; 10th day, tumor volume versus control, dose and species not stated in the sentence (method speaks of rats)",31.2%
same,ALL (Average length of life),"[2]; rats, Group 1, Dose/day 102.6 mg/kg body weight, injected daily for 5 days, 28 Rats/Group, control 21.7",26.5 days
same,% of control (ALL),"[2]; rats, Group 1, Dose/day 102.6 mg/kg body weight, control = 100",122.1%
same,% cured,"[2]; rats, Group 1, Dose/day 102.6 mg/kg body weight, cured rats lived over two months after implantation",33.0%
"C=C(C)[C@@H]1CC[C@]2(COC(C)=O)CC[C@]3(C)[C@H](CC[C@@H]4[C@@]5(C)CC[C@H](OC(C)=O)C(C)(C)[C@@H]5CC[C@]43C)[C@@H]12 [Betulinol diacetate, Betulinol Biacetate]","BBA Mass Content, %, at 20 °C",[3]; Acetone,32 mass %
same,"BBA Mass Content, %, at T (°C)","[3]; Acetone, 56 °C",68 mass %
same,"BBA Mass Content, %, at 20 °C",[3]; Benzene,100 mass %
same,"BBA Mass Content, %, at 20 °C",[3]; Butanol,15 mass %
same,"BBA Mass Content, %, at T (°C)","[3]; Butanol, 95 °C",100 mass %
same,"BBA Mass Content, %, at 20 °C",[3]; Chloroform,100 mass %
same,"BBA Mass Content, %, at 20 °C",[3]; Dimethylsulfoxide,30 mass %
same,"BBA Mass Content, %, at T (°C)","[3]; Dimethylsulfoxide, 189 °C",100 mass %
same,"BBA Mass Content, %, at 20 °C",[3]; Dioxane,30 mass %
same,"BBA Mass Content, %, at T (°C)","[3]; Dioxane, 101 °C",100 mass %
same,"BBA Mass Content, %, at 20 °C",[3]; Ethanol,2.8 mass %
same,"BBA Mass Content, %, at T (°C)","[3]; Ethanol, 78 °C",18 mass %
same,"BBA Mass Content, %, at 20 °C",[3]; Ethylacetate,53 mass %
same,"BBA Mass Content, %, at T (°C)","[3]; Ethylacetate, 77 °C",100 mass %
same,"BBA Mass Content, %, at 20 °C",[3]; Hexane,15 mass %
same,"BBA Mass Content, %, at T (°C)","[3]; Hexane, 69 °C",52 mass %
same,"BBA Mass Content, %, at 20 °C",[3]; Isopropanol,6.5 mass %
same,"BBA Mass Content, %, at T (°C)","[3]; Isopropanol, 82 °C",72 mass %
same,"BBA Mass Content, %, at 20 °C",[3]; Toluene,100 mass %
